This note sets out measurements from ChEMBL document CHEMBL1909616, “Identification of 4-quinolone derivatives as inhibitors of reactive oxygen species production from human umbilical vein endothelial cells” (Bioorg Med Chem Lett, 2011).

Data set [1] is described as follows: Aqueous solubility of the compound at pH 6.8. The class given is physicochemical. The conditions noted are these: aqueous medium.
Data set [2] is described as follows: Intrinsic clearance in human liver microsomes at 0.2 uM. The class given is ADME, Microsome.
The nature of data set [3]: Intrinsic clearance in mouse liver microsomes at 0.2 uM. Type of data set: ADME, Microsome.
Data set [4] is described as follows: Cmax in Sprague-Dawley rat at 1 mg/kg, po. The arrangement: dose 1 mg/kg, route oral. The conditions noted are these: in vivo. The class given is ADME, organism-based.
Data set [5] in a line: Tmax in Sprague-Dawley rat at 1 mg/kg, po. On the set-up: dose 1 mg/kg, route oral. The conditions noted are these: in vivo. Type of data set: ADME, organism-based.
Data set [6] in a line: AUC (0 to 24 hrs) in Sprague-Dawley rat at 0.3 mg/kg, iv. Type of data set: ADME, organism-based. The arrangement: time < 24 hr, dose 0.3 mg/kg, route intravenous. The conditions noted are these: plasma.
Data set [7] can be described thus: AUC (0 to 24 hrs) in Sprague-Dawley rat at 1 mg/kg, po. The class given is ADME, organism-based. On the set-up: time < 24 hr, dose 1 mg/kg, route oral. The conditions noted are these: plasma.
A short description of data set [8]: Oral availability in Sprague-Dawley rat at 1 mg/kg. The conditions noted are these: in vivo. The class given is ADME, organism-based. On the set-up: dose 1 mg/kg.
A short description of data set [9]: Volume of distribution at steady state in Sprague-Dawley rat at 0.3 mg/kg, iv. The class given is ADME, organism-based. The arrangement: dose 0.3 mg/kg, route intravenous. The conditions noted are these: in vivo, read-out: Vdss.
A short description of data set [10]: Total clearance in Sprague-Dawley rat at 0.3 mg/kg, iv. The arrangement: dose 0.3 mg/kg, route intravenous. Type of data set: ADME, organism-based. The conditions noted are these: in vivo.
A short description of data set [11]: Half life in Sprague-Dawley rat at 0.3 mg/kg, iv. The class given is ADME, organism-based. The arrangement: dose 0.3 mg/kg, route intravenous. The conditions noted are these: in vivo.
Data set [12] is described as follows: Cmax in Sprague-Dawley rat at 3 mg/kg, po. The arrangement: dose 3 mg/kg, route oral. The class given is ADME, organism-based. The conditions noted are these: in vivo.
The nature of data set [13]: Tmax in Sprague-Dawley rat at 3 mg/kg, po. The arrangement: dose 3 mg/kg, route oral. The conditions noted are these: in vivo. The class given is ADME, organism-based.
Data set [14] can be described thus: AUC (0 to 24 hrs) in Sprague-Dawley rat at 3 mg/kg, po. The class given is ADME, organism-based. On the set-up: time < 24 hr, dose 3 mg/kg, route oral. The conditions noted are these: plasma.
Data set [15] is described as follows: Oral availability in Sprague-Dawley rat at 3 mg/kg. The arrangement: dose 3 mg/kg. The conditions noted are these: in vivo. The class given is ADME, organism-based.

Values after ≈ are worked out from the molar mass of the structure shown.

Take `Cc1c(COc2cccc(OCC3CCOCC3)c2)[nH]c2ccc(-c3cccnc3)cc2c1=O`: the solubility in data set [1] is under 1 µM. Further, the CLint scaled at 0.2 µM is 756 mL/min/kg in data set [2] and over 1000 mL/min/kg in data set [3].

For the molecule `COCCOCCCCc1[nH]c2ccccc2c(=O)c1C`, in [1], the solubility is at least 100 µM. Moreover, the CLint scaled at 0.2 µM in [2] was 45 mL/min/kg; in data set [3] it was over 1000 mL/min/kg.

In data set [1], `Cc1c(COc2cc(OCC3CCOCC3)ccn2)[nH]c2ccccc2c1=O` registered a solubility of 36 µM (≈ 13.7 µg/mL). The CLint scaled at 0.2 µM in [2] turned out to be 113 mL/min/kg; in [3], 312 mL/min/kg.

`CCCCCCCCCc1[nH]c2ccccc2c(=O)c1C` yielded a solubility in [1] of under 1 µM. For the same molecule, the intrinsic clearance (CLint scaled) at 0.2 µM in data set [2] and in [3] was over 1000 mL/min/kg throughout.

In data set [1], `CC(C)c1c(COc2cccc(OCC3CCOCC3)c2)[nH]c2ccccc2c1=O` gave a solubility of 3 µM (≈ 1.22 µg/mL).

`Cc1c(COc2ccnc(OCC3CCOCC3)c2)[nH]c2ccccc2c1=O` gave a solubility in data set [1] of 22 µM (≈ 8.37 µg/mL). Besides, the intrinsic metabolic clearance (CLint scaled) at 0.2 µM in [2] turned out to be 95 mL/min/kg; in [3], 203 mL/min/kg.

`Cc1c(COc2cc(OCCC(C)(C)O)ccn2)[nH]c2ccccc2c1=O` came in with a solubility in [1] of 85 µM (≈ 31.3 µg/mL). Further, the CLint scaled at 0.2 µM is 38 mL/min/kg in data set [2] and 112 mL/min/kg in data set [3]. The same molecule yielded a Cmax in [4] of 202 ng/mL. In addition, in data set [5], the Tmax worked out at 4 h. Besides, the AUC(0-t) at 24 h in [6] is 897 ng·h/mL; in data set [7], 2240 ng·h/mL. Moreover, the bioavailability in [8] amounted to 78%. The Vd in [9] is 1.4 L/kg. The same molecule came in with a clearance in data set [10] of 6 mL/min/kg. Further, the half-life in data set [11] is 4.1 h.

Turning to `CCCCCC/C=C/Cc1[nH]c2ccccc2c(=O)c1C`, the solubility in data set [1] is under 1 µM. Moreover, the CLint scaled at 0.2 µM in [2] and in data set [3] was over 1000 mL/min/kg each time.

`COc1ccc2[nH]c(COc3cccc(OCC4CCOCC4)c3)c(C)c(=O)c2c1`: the solubility in data set [1] is under 1 µM.

The molecule `Cc1ccc2[nH]c(COc3cccc(OCC4CCOCC4)c3)c(C)c(=O)c2c1` returned a solubility in data set [1] of under 1 µM.

Consider `O=c1cc(COc2cccc(OCC3CCOCC3)c2)[nH]c2ccccc12`, for which the solubility in data set [1] came out at 4 µM (≈ 1.46 µg/mL). The CLint scaled at 0.2 µM stood at 78 mL/min/kg in [2] and 197 mL/min/kg in data set [3].

The molecule `Cc1c(COc2cccc(OCCCC(F)(F)F)c2)nc2ccccc2c1O` displayed a solubility in data set [1] of under 1 µM. In addition, the intrinsic metabolic clearance (CLint scaled) at 0.2 µM is 257 mL/min/kg in [2] and over 1000 mL/min/kg in data set [3].

On to `Cc1c(COc2cncc(OCCC(C)(C)O)c2)[nH]c2ccccc2c1=O`, for which the solubility in data set [1] was at least 100 µM. The results for the CLint scaled at 0.2 µM in data set [2] and in [3] were 66 mL/min/kg and 225 mL/min/kg, respectively.

For `Cc1c(COc2cccc(OCC3CCOCC3)c2)[nH]c2ccc(F)cc2c1=O`, the solubility in data set [1] was 2 µM (≈ 0.795 µg/mL). For the same molecule, the CLint scaled at 0.2 µM in [2] was 473 mL/min/kg; in [3], over 1000 mL/min/kg.

Molecule `Cc1c(COCCCCOCC2(C)COC2)[nH]c2ccccc2c1=O` registered a solubility in data set [1] of at least 100 µM. Also, the intrinsic metabolic clearance (CLint scaled) at 0.2 µM in data set [2] stood at 53 mL/min/kg; in data set [3], 295 mL/min/kg.

The molecule `Cc1c(COc2cccc(OCC3CCOCC3)c2)[nH]c2ccccc2c1=O` had a solubility in data set [1] of 5 µM (≈ 1.9 µg/mL). In addition, the values for the CLint scaled at 0.2 µM in data set [2] and in data set [3] were 214 mL/min/kg and 420 mL/min/kg, respectively. The molecule also returned a Cmax in data set [12] of 196 ng/mL. Moreover, the Tmax in [13] was found to be 0.22 h. Besides, the AUC(0-t) at 24 h was 196 ng·h/mL in data set [6] and 526 ng·h/mL in data set [14]. Moreover, the bioavailability in data set [15] is 27%. Moreover, the Vd in data set [9] was 2.3 L/kg. Further, the clearance in data set [10] was found to be 26 mL/min/kg. Further, the half-life in data set [11] is 1.8 h.

`O=c1c(Cl)c(COc2cccc(OCC3CCOCC3)c2)[nH]c2ccccc12` had a solubility in [1] of 2 µM (≈ 0.8 µg/mL). For the same molecule, the CLint scaled at 0.2 µM in data set [2] is 460 mL/min/kg; in data set [3], over 1000 mL/min/kg.

Consider `Cc1c(COc2cccc(OCC3CCOCC3)n2)[nH]c2ccccc2c1=O`, for which the solubility in data set [1] was 3 µM (≈ 1.14 µg/mL). For the same molecule, the values for the intrinsic clearance (CLint scaled) at 0.2 µM in data set [2] and in data set [3] were 770 mL/min/kg and 984 mL/min/kg, respectively.

Molecule `Cc1c(COc2cncc(OCC3CCOCC3)c2)[nH]c2ccccc2c1=O` yielded a solubility in data set [1] of at least 100 µM. Moreover, the CLint scaled at 0.2 µM was determined as 133 mL/min/kg in [2] and 238 mL/min/kg in [3].

For the molecule `Cc1c(COCCCCO)nc2ccccc2c1O`, the solubility in data set [1] was at least 100 µM.

In the case of `Cc1c(COc2cccc(OCC3CCOCC3)c2)[nH]c2ccc(Cl)cc2c1=O`, the solubility in data set [1] was under 1 µM. Besides, the CLint scaled at 0.2 µM in data set [2] and in data set [3] was over 1000 mL/min/kg in each case.

In turn, `Cc1c(COc2cccc(OCC3CCOCC3)c2)[nH]c2ccc(C(=O)O)cc2c1=O` came in with a solubility in data set [1] of at least 100 µM. For the same molecule, the intrinsic metabolic clearance (CLint scaled) at 0.2 µM in [2] was under 20 mL/min/kg; in [3] it was under 50 mL/min/kg.

The molecule `COC(C)(C)CCOc1cccc(OCc2[nH]c3ccccc3c(=O)c2C)c1` yielded a solubility in [1] of 2 µM (≈ 0.763 µg/mL). The intrinsic clearance (CLint scaled) at 0.2 µM in data set [2] and in [3] was over 1000 mL/min/kg throughout.

As for `CCCCOc1cccc(OCc2[nH]c3ccccc3c(=O)c2C)c1`, the solubility in [1] was under 1 µM. In addition, the CLint scaled at 0.2 µM in [2] and in data set [3] was over 1000 mL/min/kg in each case.

Take `Cc1c(COc2cccc(OCC3CCOCC3)c2)[nH]c2ccc(Br)cc2c1=O`: the solubility in data set [1] is under 1 µM.
